How the values were obtained:
[1] = NOVARTIS: Cytotoxicity against human hepatocellular carcinoma cell line (Huh7); format: toxicity, cell-based, Huh-7; details: Huh7 cells (hepatocellular carcinoma cell line)
Plasmodium falciparum [2] = assay: NOVARTIS: Inhibition of Plasmodium falciparum 3D7 (drug-susceptible) proliferation in erythrocyte-based infection assay; format: functional, organism-based; details: Plasmodium falciparum, 3D7
Plasmodium falciparum [3] = assay: NOVARTIS: Inhibition of Plasmodium falciparum W2 (drug-resistant) proliferation in erythrocyte-based infection assay; format: functional, organism-based; details: Plasmodium falciparum, W2; read-out: EC50

| SMILES | CC50 [1] | EC50 (Plasmodium falciparum [2]) | EC50 (Plasmodium falciparum [3]) |
| --- | --- | --- | --- |
| COc1ccccc1Nc1nc(NCc2ccccc2)c2ccccc2n1 | 19.6 µM | 0.312 µM | 0.212 µM |
| CCOc1ccc2cc(C#N)c(SCC(=O)N3CC(=O)Nc4ccccc43)nc2c1 | > 10 µM | > 1.11 µM | > 1.25 µM |
| C=CCn1c(=N)n(CC(O)c2ccc(Cl)c(Cl)c2)c2ccccc21 (stereo not drawn) | 14.7 µM | 0.141 µM | 0.0583 µM |
| CCOC(=O)c1c(C)[nH]c(C)c1S(=O)(=O)N1CCCC(C(=O)N2CCN(c3cc(C)ccc3C)CC2)C1 (stereo not drawn) | > 82.3 µM | 0.231 µM | 0.367 µM |
| CCC(Sc1nc2ccccc2n1C(C)=O)C(=O)NC1=NN=C(c2ccc(Br)cc2)CS1 (stereo not drawn) | 46.7 µM | 0.549 µM | 0.543 µM |
| OC(c1cc(C(F)(F)F)nc2c(C(F)(F)F)cccc12)C1CCCCN1 (stereo not drawn) [MEFLOQUINE] | 18.9 µM | 0.0248 µM | 0.00814 µM |
| Cn1nc(C(=O)N2CCCC2)c2c1CCC(NCc1cnc3ccccc3c1)C2 (stereo not drawn) | > 10 µM | > 1.25 µM | > 0.843 µM |
| COC(=O)c1ccc(C=NNc2cc(C)nc3ccc(OC)cc23)cc1 | 16.5 µM | 0.204 µM | 0.537 µM |
| Cc1ccc(CNC(=O)CSc2nc3ccsc3c(=O)n2CCCCCC(=O)NCCc2ccccc2)cc1 | > 100 µM | 4.43 µM | 2.72 µM |
| CCCCSCC(O)CN1CCCCC1 (stereo not drawn) | > 100 µM | 5.28 µM | 0.534 µM |
| CCCN1CCC(N2C[C@@H](NCCC3=C(C)CCCC3(C)C)C[C@H]2C(=O)NCC)CC1 | 35.1 µM | 2.34 µM | 0.765 µM |
| COc1cc2c(cc1OC)-c1cc3ccc4c(c3c[n+]1CC2)OCO4 | > 6.25 µM | 0.103 µM | 0.233 µM |
| COC(OC)C(C)=NNC(N)=S | > 100 µM | 0.00892 µM | 0.00362 µM |
| CCCCN1Cc2ccc(C(=O)NCCN3CCOCC3)cc2N=C1c1ccc(OC)cc1 | > 100 µM | > 10 µM | 4.41 µM |
| O=C(CSc1nc2ccccc2c(=O)n1CCCN1CCOCC1)Nc1cccc(S(=O)(=O)N2CCCCCC2)c1 | 62.1 µM | 0.47 µM | 1.18 µM |
| COc1ccc(C2CC(=O)C3=C(C2)NC(C)=C(C(=O)OC2CCCC2)C3c2ccc(F)cc2)cc1 (stereo not drawn) | > 100 µM | 0.0986 µM | 0.0416 µM |
| O=C(Nc1ccc(CC2=NCCCN2)cc1)c1ccc(C(=O)Nc2ccc(CC3=NCCCN3)cc2)cc1 | > 10 µM | 0.127 µM | 0.129 µM |
| CC(C)(C)c1ccc(C=CC(=O)NCc2ccco2)cc1 | 1.14 µM | 0.623 µM | 0.322 µM |
| CCN1CC=C2C(C#N)=C(N)C(C#N)(C#N)C(c3ccc(C)s3)C2C1 (stereo not drawn) | > 10 µM | > 0.877 µM | > 1.25 µM |
| COc1cc(C=NNC(=O)c2ccc(C(=O)NN=Cc3ccc(O)c(OC)c3)cc2)ccc1O | > 100 µM | 0.652 µM | 1.03 µM |
| O=C1c2cc([N+](=O)[O-])ccc2-n2c1nc1ccccc1c2=O | > 10 µM | 0.148 µM | 0.101 µM |
| CCN1CCN(CC(O)COc2ccc(OC)cc2)CC1 (stereo not drawn) | > 100 µM | 2.81 µM | > 9.19 µM |
| CCN1c2ccc([N+](=O)[O-])cc2N(CC)C1(C)c1ccccc1 (stereo not drawn) | 67.6 µM | 0.204 µM | 0.0397 µM |
| O=C(NCc1ccco1)C1CCCN(c2cccc3c2C(=O)N(CCc2cccc(F)c2)C3=O)C1 (stereo not drawn) | > 10 µM | > 1.4 µM | > 0.611 µM |
| CN1CCN(c2ccc(NC(=O)Oc3ccccc3)cc2)CC1 | 25.4 µM | 4.17 µM | 7.48 µM |
| CCOc1ccc(NC(=O)CSc2nncc(O)n2)cc1 | > 100 µM | 0.859 µM | 0.473 µM |

| SMILES | CC50 [1] | EC50 (Plasmodium falciparum [2]) | EC50 (Plasmodium falciparum [3]) |
| --- | --- | --- | --- |
| CCC(=O)N1CCc2cc(Br)cc(S(=O)(=O)N3CCN(CC)CC3)c21 | > 10 µM | > 1.63 µM | > 0.744 µM |
| COc1cccc(C(=O)N(CCCC(C)Nc2cc(OC)cc3cccnc23)Cc2ccc(OC)c(OC)c2)c1 (stereo not drawn) | > 4.01 µM | 1.48 µM | 0.513 µM |
| CC(C)N(C(=O)Cn1ccc(=N)c2ccccc21)C(C)C | > 100 µM | 1.24 µM | 1.65 µM |
| Cc1ccc(N2C(=O)CC(NCCCN3CCOCC3)C2=O)cc1 (stereo not drawn) | > 10 µM | > 1.29 µM | 1.61 µM |
| Cc1ccc2[nH]c3c(NCCN(C(C)C)C(C)C)ncnc3c2c1 | 16.3 µM | 0.306 µM | 0.42 µM |
| COC(=O)CC(NS(=O)(=O)c1ccc(OC)cc1)c1ccc2c(c1)OCO2 (stereo not drawn) | > 10.3 µM | 1.46 µM | < 0.0234 µM |
| Cc1cccc(C(=O)NCc2nnc(S)n2-c2cccc(C(F)(F)F)c2)c1 | > 100 µM | 2.18 µM | 0.75 µM |
| COc1ccc(OC)c(NC(=O)c2cnn3c(C(F)(F)F)cc(-c4ccc(OC)c(OC)c4)nc23)c1 | > 10 µM | > 1.25 µM | 1.14 µM |
| O=C(/C=C/c1ccccc1)Nc1ccccc1C(=O)Nc1ccc(-c2nc3ccc(NC(=O)c4ccccc4NC(=O)/C=C/c4ccccc4)cc3[nH]2)cc1 | > 13.3 µM | 0.347 µM | 0.382 µM |
| CCCCn1nccc1Nc1cc(C)c(C#N)c2nc3ccccc3n12 | > 100 µM | 4.42 µM | 2.61 µM |
| O=C(CC1OC(=O)c2ccccc21)c1ccc(Cl)cc1 (stereo not drawn) | > 100 µM | 0.717 µM | 0.342 µM |
| C=CCc1c(C)nc2ccccc2c1O | > 100 µM | 0.707 µM | 0.844 µM |
| COc1ccc([C@@H]2C[C@H](OC(=O)c3ccc4c(c3)OCO4)C(=O)N2C)cc1 | > 10 µM | 1.18 µM | > 1.25 µM |
| Nc1c(C(=O)c2ccc(Br)cc2)sc2nc(-c3cccnc3)ccc12 | > 13 µM | 1.3 µM | > 1.09 µM |
| Cc1nc2ccccc2n1S(C)(=O)=O | > 10 µM | 0.0596 µM | 0.0543 µM |
| COc1ccc(OC)c(-c2ccc(C(=O)N3CCN(C/C=C/c4ccccc4)CC3)c(N(C)C)n2)c1 | > 10 µM | 0.922 µM | 0.333 µM |
| COC(=O)c1sc2nc(CN3CCCC(C)C3)ccc2c1NC(=O)c1ccc(C)s1 (stereo not drawn) | > 100 µM | 1.81 µM | 1.56 µM |
| CCc1cc2c(NCCN3CCCCC3)ncnc2s1 | > 96.1 µM | 1.32 µM | 0.466 µM |
| COC(=O)C(C)NC(=O)c1ccc(F)cc1 (stereo not drawn) | > 10 µM | > 1.25 µM | 0.681 µM |
| O=C(Nc1ccc2oc(-c3ccc(I)cc3)nc2c1)c1ccc([N+](=O)[O-])o1 | 33.8 µM | 3.16 µM | 2.2 µM |
| COc1cc(C(c2c(C)n(C)n(-c3ccccc3)c2=O)c2c(C)n(C)n(-c3ccccc3)c2=O)cc(Cl)c1OCc1ccccc1 | 38.3 µM | 2.69 µM | 0.456 µM |
| C=CCOC(=O)C1=C(C)N2CCSC2=C(C#N)C1c1ccco1 (stereo not drawn) | > 10 µM | 1.21 µM | > 1.25 µM |
| COc1ccc2c(c1OC)C(=O)N(c1ncc(C)s1)C2 | > 10 µM | > 1.25 µM | > 1.08 µM |
| C=C(C[N+](C)(C)C)c1ccc([N+](=O)[O-])cc1 | > 10 µM | 0.317 µM | 0.279 µM |
| O=C(C1CCC1)N1CCN(c2ccccn2)CC1 | > 10 µM | > 1.25 µM | > 0.918 µM |

Source: ChEMBL document CHEMBL1156829 (Proc Natl Acad Sci U S A, 2008)
